38 compounds from patent publication US20040224958A1, “Pyridopyrimidinone derivatives for treatment of neurodegenerative disease” (priority 2000, published 2004) can be followed below.

What is called melting point is the temperature, or range, at which the solid turns liquid. As for `CCC(C)n1c(=O)ccc2cnc(Nc3ccccc3)nc21` (centres unmarked) [Example 85, 8-sec-Butyl-2-phenylamino-8H-pyrido[2,3-d]pyrimidin-7-one], the melting point lay in the range of 155 to 156 °C. `O=c1ccc2cnc(Nc3ccccc3)nc2n1CCCOc1ccccc1` [Example 87, 8-(3-Phenoxypropyl)-2-phenylamino-8H-pyrido[2,3-d]pyrimidin-7-one] returned a melting point of 175 to 176 °C. Then `CCNc1ncc2ccc(=O)n(-c3ccccc3)c2n1` [Example 100, 2-Ethylamino-8-phenyl-8H-pyrido[2,3-d]pyrimidin-7-one], with 193 to 195 °C; and `CCn1c(=O)ccc2cnc(Nc3ccc(-n4cccc4)cc3)nc21` [Example 110, 8-Ethyl-2-(4-pyrrol-1-yl-phenylamino)-8H-pyrido[2,3-d]pyrimidin-7-one], with 220 to 222 °C. In the case of `CC(C)n1c(=O)ccc2cnc(Nc3ccc(O)cc3)nc21` [Example 112, 2-(4-Hydroxy-phenylamino)-8-isopropyl-8H-pyrido[2,3-d]pyrimidin-7-one] it was 226 to 228 °C. Then `CN1CCN(c2ccc(Nc3ncc4ccc(=O)n(-c5ccccc5)c4n3)cc2)CC1` [Example 113, 2-[4-(4-Methyl-piperazin-1-yl)-phenylamino]-8-phenyl-8H-pyrido[2,3-d]pyrimidin-7-one], with 259 to 262 °C. `CN1CCN(c2ccc(Nc3ncc4ccc(=O)n(CCCOCc5ccccc5)c4n3)cc2)CC1` [Example 115, 8-(3-Benzyloxy-propyl)-2-[4-(4-methyl-piperazin-1-yl)-phenylamino]-8H-pyrido[2,3-d]pyrimidin-7-one] came in with a melting point of 148 to 150 °C. In the case of `CCN(CC)CCOc1ccc(Nc2ncc3ccc(=O)n(CCCOCc4ccccc4)c3n2)cc1` [Example 116, 8-(3-Benzyloxy-propyl)-2-[4-(2-diethylamino-ethoxy)-phenylamino]-8H-pyrido[2,3-d]pyrimidin-7-one] it was 70 to 72 °C; in that of `CC(C)n1c(=O)ccc2cnc(Nc3ccc(OCCN4CCOCC4)cc3)nc21` [Example 141, 8-Isopropyl-2-[4-(2-morpholin-4-yl-ethoxy)-phenylamino]-8H-pyrido[2,3-d]pyrimidin-7-one], 118 to 119 °C. Then `O=c1ccc2cnc(Nc3ccc(N4CCCCC4)cc3)nc2n1C1CCCCC1` [Example 142, 8-Cyclohexyl-2-(4-piperidin-1-yl-phenylamino)-8H-pyrido[2,3-d]pyrimidin-7-one], with 198 to 200 °C; and `CC1CN(c2ccc(Nc3ncc4ccc(=O)n(C5CCCCC5)c4n3)cc2)CC(C)N1CCO` (centres unmarked) [Example 143, 8-Cyclohexyl-2-{4-[4-(2-hydroxy-ethyl)-3,5-dimethyl-piperazin-1-yl]-phenylamino}-8H-pyrido[2,3-d]pyrimidin-7-one], with 175 to 177 °C.

As for `CCN(CC)CCOc1ccc(Nc2ncc3ccc(=O)n(C4CCCCC4)c3n2)cc1C` [Example 150, 8-Cyclohexyl-2-[4-(2-diethylamino-ethoxy)-3-methyl-phenylamino]-8H-pyrido[2,3-d]pyrimidin-7-one], the melting point lay in the range of 119 to 121 °C.

Compound `O=c1ccc2cnc(NC3CCCCC3)nc2n1C1CCCCC1` [Example 153, 8-Cyclohexyl-2-cyclohexylamino-8H-pyrido[2,3-d]pyrimidin-7-one] registered a melting point of 169 to 170 °C. `O=c1ccc2cnc(Nc3ccccc3)nc2n1C1CCCCCC1` [Example 155, 8-Cycloheptyl-2-phenylamino-8H-pyrido[2,3-d]pyrimidin-7-one] yielded a melting point of 156 to 158 °C. Then `CCN(CC)CCOc1ccc(Nc2ncc3ccc(=O)n(C4CCCCCC4)c3n2)cc1` [Example 156, 8-Cycloheptyl-2-[4-(2-diethylamino-ethoxy)-phenylamino]-8H-pyrido[2,3-d]pyrimidin-7-one], with 121 to 122 °C.

`O=c1ccc2cnc(Nc3ccc(N4CCCCC4)cc3)nc2n1CCCOC1CCCCO1` (centres unmarked) [Example 158] had a melting point of 85 to 86 °C.

The compound `CC(C)(C)OC(=O)C1CCCN1c1ccc(Nc2ncc3ccc(=O)n(C4CCCCC4)c3n2)cc1` (centres unmarked) [Example 170, 1-[4-(8-Cyclohexyl-7-oxo-7,8-dihydro-pyrido[2,3-d]pyrimidin-2-ylamino)-phenyl]-pyrrolidine-2-carboxylic acid tert-butyl ester] returned a melting point of 144 to 145 °C. As for `O=c1ccc2cnc(Nc3ccc(N4CCSCC4)cc3)nc2n1C1CCCCC1` [Example 177, 8-Cyclohexyl-2-(4-thiomorpholin-4-yl-phenylamino)-8H-pyrido[2,3-d]pyrimidin-7-one], the melting point was 213 to 214 °C. On to `O=c1ccc2cnc(Nc3ccccc3)nc2n1C1CC2CCC1C2` (centres unmarked) [Example 180, 8-Bicyclo[2.2.1]hept-2-yl-2-phenylamino-8H-pyrido[2,3-d]pyrimidin-7-one], for which the melting point fell in the range of 225 to 226 °C. With `O=c1ccc2cnc(Nc3ccccc3)nc2n1CC1CCCCC1` [Example 182, 8-Cyclohexylmethyl-2-phenylamino-8H-pyrido[2,3-d]pyrimidin-7-one], the melting point was 230 to 231 °C. Then `O=c1ccc2cnc(Nc3ccc(N4CCCCC4)cc3)nc2n1CC1CCCCC1` [Example 183, 8-Cyclohexylmethyl-2-(4-piperidin-1-yl-phenylamino)-8H-pyrido[2,3-d]pyrimidin-7-one], with 212 to 213 °C; and `O=c1ccc2cnc(Nc3ccc(F)cc3)nc2n1C1CCCCCC1` [Example 184, 8-Cycloheptyl-2-(4-fluoro-phenylamino)-8H-pyrido[2,3-d]pyrimidin-7-one], with 198 to 199 °C; and `O=c1ccc2cnc(Nc3ccc(-n4cccn4)cc3)nc2n1C1CCCC1` [Example 191, 8-Cyclopentyl-2-(4-pyrazol-1-yl-phenylamino)-8H-pyrido[2,3-d]pyrimidin-7-one], with 197 to 198 °C. In the case of `O=c1ccc2cnc(Nc3cccc(N4CCCCC4)c3)nc2n1C1CCCCCC1` [Example 201, 8-Cycloheptyl-2-(3-piperidin-1-yl-phenylamino)-8H-pyrido[2,3-d]pyrimidin-7-one] it was 123 to 124 °C; in that of `O=c1ccc2cnc(Nc3ccc(N4CCCC(O)C4)cc3)nc2n1C1CCCC1` (centres unmarked) [Example 206, 8-Cyclopentyl-2-[4-(3-hydroxy-piperidin-1-yl)-phenylamino]-8H-pyrido[2,3-d]pyrimidin-7-one], 178 to 179 °C; in that of `O=c1ccc2cnc(Nc3ccc(N4CCCCC4CO)cc3)nc2n1C1CCCC1` (centres unmarked) [Example 207, 8-Cyclopentyl-2-[4-(2-hydroxymethyl-piperidin-1-yl)-phenylamino]-8H-pyrido[2,3-d]pyrimidin-7-one], 135 to 136 °C. In the case of `O=c1ccc2cnc(Nc3cccc(OC(F)(F)C(F)F)c3)nc2n1C1CC2CCC1C2` (centres unmarked) [Example 213, 8-Bicyclo[2.2.1]hept-2-yl-2-[3-(1,1,2,2-tetrafluoro-ethoxy)-phenylamino]-8H-pyrido[2,3-d]pyrimidin-7-one] it was 192 °C. Compound `O=c1ccc2cnc(Nc3ccc(N4CCC(CCO)CC4)cc3)nc2n1C1CCCCC1` [Example 216, 8-Cyclohexyl-2-{4-[4-(2-hydroxy-ethyl)-piperidin-1-yl]-phenylamino}-8H-pyrido[2,3-d]pyrimidin-7-one] showed a melting point of 236 to 237 °C. Then `O=c1ccc2cnc(Nc3ccc(N4CCC(CCCN5CCOCC5)CC4)cc3)nc2n1C1CC2CCC1C2` (centres unmarked) [Example 217, 8-Bicyclo[2.2.1]hept-2-yl-2-[4-[4-(3-morpholin-4-yl-propyl)-piperidin-1-yl]-phenylamino]-8H-pyrido[2,3-d]pyrimidin-7-one], with 185 to 186 °C. In the case of `O=c1ccc2cnc(Nc3ccc(-n4cccn4)cc3)nc2n1C1CC2CCC1C2` (centres unmarked) [Example 218, 8-Bicyclo[2.2.1]hept-2-yl-2-(4-pyrazol-1-yl-phenylamino)-8H-pyrido[2,3-d]pyrimidin-7-one] it was 234 to 235 °C; in that of `COc1ccc(CNc2ncc3ccc(=O)n(C4CCCCC4)c3n2)cc1` [Example 225, 8-Cyclohexyl-2-(4-methoxy-benzylamino)-8H-pyrido[2,3-d]pyrimidin-7-one], 165 °C.

For `Nc1ncc2ccc(=O)n(C3CCCCC3)c2n1` [Example 226, 2-Amino-8-cyclohexyl-8H-pyrido[2,3-d]pyrimidin-7-one], the melting point amounted to 155 °C. Then `CN(C)CCCN1CCN(c2ccc(Nc3ncc4ccc(=O)n(C5CC6CCC5C6)c4n3)cc2)CC1` (centres unmarked) [Example 230, 8-Bicyclo[2.2.1]hept-2-yl-2-{4-[4-(3-dimethylamino-propyl)-piperazin-1-yl]-phenylamino}-8H-pyrido[2,3-d]pyrimidin-7-one], with 212 to 213 °C; and `O=c1ccc2cnc(Nc3ccc(N4CCCCC4)cc3)nc2n1C1CCCC1O` (centres unmarked) [Example 242, 8-(2-Hydroxy-cyclopentyl)-2-(4-piperidin-1-yl-phenylamino)-8H-pyrido[2,3-d]pyrimidin-7-one], with 230 to 232 °C; and `CCOC(=O)N1CCC(n2c(=O)ccc3cnc(Nc4ccc(N5CCCCC5)cc4)nc32)CC1` [Example 246, 4-[7-Oxo-2-(4-piperidin-1-yl-phenylamino)-7H-pyrido[2,3-d]pyrimidin-8-yl]-piperidine-1-carboxylic acid ethyl ester], with 231 to 233 °C. In the case of `CC(C)n1c(=O)ccc2cnc(N)nc21` [Example 257, 2-Amino-8-isopropyl-8H-pyrido[2,3-d]pyrimidin-7-one] it was 153 °C; in that of `O=c1ccc2cnc(Nc3ccc(N4CCC(CCN5CCOCC5)CC4)cc3)nc2n1C1CC2CCC1C2` (centres unmarked) [Example 259, 8-Bicyclo[2.2.1]hept-2-yl-2-[4-[4-(2-morpholin-4-yl-ethyl)-piperidin-1-yl]-phenylamino]-8H-pyrido[2,3-d]pyrimidin-7-one], 223 to 224 °C. Then `CC(C)n1c(=O)ccc2cnc(Nc3ccc(N4CCC(CCCN5CCOCC5)CC4)cc3)nc21` [Example 260, 8-Isopropyl-2-{4-[4-(3-morpholin-4-yl-propyl)-piperidin-1-yl]-phenylamino}-8H-pyrido[2,3-d]pyrimidin-7-one], with 195 to 196 °C.
